Source: a melting point compilation (Tetko et al.)

| melting point [°C] | SMILES |
| --- | --- |
| 111 to 113 | C=CCn1c(SC)nc2nc(SC)n(C)c2c1=O |
| -13 | CC(=O)CCc1ccccc1 |
| 105 | CC(=O)C1(C)Cc2ccccc2C(=O)O1 (configuration not stated) |
| 180 to 185 | CCOC(=O)Oc1c(OC)cc(C(=O)O)cc1OC |
| -14 | CCC(CC)C(=O)O |
| 167 | CC1OC(n2ccc(NC(=O)c3ccc(NC(=O)C(C)(N)CO)cc3)nc2=O)CCC1OC1OC(C)C(N(C)C)C(O)C1O (configuration not stated) |
| 28 | CC(C)=CC(=O)C=C(C)C |
| 125 | CCCC(CCC)C(=O)O |
| 208 | CN(C)Cc1c(O)c(Br)c(C(=O)O)c(Br)c1O |
| 173 | Cc1cc(O)nc(C(C)C)n1 |
| 161 to 163 | CNc1ccccc1C(N)=O |
| 127 to 129 | CCCCc1ccc(C(N)=O)cc1 |
| 154 | CC1CCC(C)(C(=O)CCOC(=S)Nc2ccccc2)C1(C)C (configuration not stated) |
| 182 to 190 | CC(=O)C1(O)CCC2(C)C(CCC3C2CCC2(C)C3CCC23OCCO3)C1 (configuration not stated) |
| 277 | O=C(O)C1CCCCN1 (configuration not stated) |
| 182 | Nc1cc(F)c(F)cc1C(=O)O |

| melting point [°C] | SMILES |
| --- | --- |
| 91 to 92 | CCOC(=O)c1cnn(-c2ccc(N)cc2)c1C |
| 83 | COC(=O)c1ccccc1C(=O)O |
| 69 | CC[C@H](C)[C@H](NC(=O)OC(C)(C)C)C(=O)O |
| 54 | CC(=O)OCC1OC=CC(OC(C)=O)C1OC(C)=O (configuration not stated) |
| 258 to 260 | O=C(O)Cn1ccnc1 |
| 112 to 113 | CC(=CC=Cc1ccccc1)C(=O)OC(=O)C(C)=CC=Cc1ccccc1 |
| 192 | CC(=O)NC(=Cc1ccccc1)C(=O)O |
| 315 to 318 | O=C(O)c1cc(Br)c(C(=O)O)cc1Br |
| 92 | C=CCOc1ccc(CC(=O)O)cc1Cl |
| 145 | CCC(c1ccc(O)c(C)c1)C(CC)c1ccc(O)c(C)c1 (configuration not stated) |
| 129 | CC(=O)N1c2ccccc2CC1c1ccccc1 (configuration not stated) |
| 242 to 243 | C/C(=N\c1cccc(C(=O)O)c1)c1c(O)c2ccccc2n(-c2ccccc2)c1=O |
| 253 | CC1CCc2cc(F)cc3c(=O)c(C(=O)O)cn1c23 (configuration not stated) |
| -67.5 | CCC(C)CCC(C)(O)CC (configuration not stated) |
| 130 to 132 | COC(=O)c1cc([N+](=O)[O-])ccc1SC |

Continued, compound first:

| SMILES | melting point [°C] |
| --- | --- |
| CCOC(=O)c1ccc(Cl)c([N+](=O)[O-])c1 | 57 to 61 |
| O=Cc1cc(Cl)cc(Cl)c1[N+](=O)[O-] | 91 |
| O=C(O)C1C(c2ccccc2)C(C(=O)O)C1c1ccccc1 (configuration not stated) | 228 |
| ON=CC1=C(/C=C/c2ccccc2)CCC1 | 162 to 163 |
| Cc1ccc(Cl)c(O)c1 | 46 |
| c1coc(CNc2ncnc3[nH]cnc23)c1 | 269 to 271 |
| CCc1ccnc(N)c1 | 67 |
| ON=CNc1ncccn1 | 184 to 186 |
| C=C(Br)CC(NC(=O)OCC1c2ccccc2-c2ccccc21)C(=O)O (configuration not stated) | 120 |
| COC(=O)c1ccc(-c2ccccc2)nc1 | 110 |
| CCC(CO)NCCNC(CC)CO (configuration not stated) | 89 |
| O=CC(C=O)c1ccncn1 | 227 to 232 |
| COc1cc(OC(F)(F)F)ccc1C#N | 35 |
| CCCCCCCCCCCCCCC=O | 24.5 |
| CN(C)C(=S)Oc1ccc2ccccc2c1 | 90 |
| Cc1cnc2c(C(=O)O)c(Cl)ccc2c1 | 253 |
| O=C(O)C(F)(F)C(F)(F)C(F)(F)C(F)(F)C(F)(F)C(F)(F)C(F)(F)C(F)(F)F | 65 |
| NCc1ccc(S(N)(=O)=O)cc1 | 151 |
| N/N=C(/C(=O)c1cccc2ccccc12)c1ccccc1 | 152 |
| Ic1ccc2[nH]ccc2c1 | 99 |
| Cn1ccccc1=O | 31 |

| SMILES | melting point [°C] |
| --- | --- |
| O=Cc1cccc2c1OCC2 | 54 to 55 |
| Cc1cnc(N)c([N+](=O)[O-])c1 | 190 to 195 |
| O=C(Cl)c1ccc2nsnc2c1 | 111 |
| CCNc1cccc(O)c1 | 62 |
| Cn1c(=O)n(-c2ccccc2)c(=O)c2c3c(sc21)CCCC3 | 249 to 251 |
| C[Si]1(C)O[Si](C)(C)O[Si](C)(C)O[Si](C)(C)O[Si](C)(C)O[Si](C)(C)O[Si](C)(C)O1 | -26 |
| O=C=Nc1ccc(Cl)c(C(F)(F)F)c1 | 35 to 36 |
| O=C(OC(C(=O)O)C(OC(=O)c1ccccc1)C(=O)O)c1ccccc1 (configuration not stated) | 155 |
| NCCCCCCCCCCCCN | 70 |
| O=[N+]([O-])c1ccc(C=Cc2cccc3ccccc23)c([N+](=O)[O-])c1 | 228 |
| Clc1ccc(Oc2ccc(Cl)cc2)cc1 | 30 |
| Ic1cc2ccccc2c2ccccc12 | 92 |
| BrCc1ccc(-c2ccsc2)cc1 | 107 to 109 |
| Brc1cnc2c(c1)OCCN2 | 116 to 119 |
| O=[N+]([O-])c1ccc(C(Br)C(Br)c2cccc3ccccc23)c([N+](=O)[O-])c1 (configuration not stated) | 161 |
| Cn1nc(C(=O)Cl)cc1-c1ccco1 | 60 to 61 |
| Cc1ccc(I)cc1 | 37.8 |
| COc1ccc([N+](=O)[O-])c2ccccc12 | 81 to 85 |
| FC(F)(F)C(F)(F)C(F)(F)C(F)(F)C(F)(F)C(F)(F)C(F)(F)F | -78 |
| O=S(=O)(Oc1ccc(Cl)cc1)c1ccc(Cl)cc1 | 86.5 |
| Cc1cc2c(cc1C)CCCC2 | 10 |

| SMILES | melting point [°C] |
| --- | --- |
| Cn1cc2cc([N+](=O)[O-])ccc2n1 | 129 |
| C=Cc1c2ccccc2cc2ccccc12 | 64 to 66 |
| O=S(=O)(Cl)c1csc(C(F)(F)F)c1-c1ccccc1 | 86 to 87 |
| CN(C(=S)Cl)c1ccc(F)cc1 | 92 to 94 |
| COc1ccc2cc([N+](=O)[O-])ccc2c1C=O | 174 |
| CC(N)C(O)c1ccccc1 (configuration not stated) | 192 |
| Cc1ccc(S(=O)(=O)OCC(F)(F)F)cc1 | 40 |
| CSc1nc(N)nc(-c2cnccn2)n1 | 215 |
| FC(F)(F)c1nn(CN2CCN(Cn3nc(C(F)(F)F)n(N=Cc4ccccc4)c3=S)CC2)c(=S)n1N=Cc1ccccc1 | 333 |
| Cc1nc(O)cc(O)n1 | 360 |
| CC(C)Nc1ccc(C(F)(F)F)cc1[N+](=O)[O-] | 103 to 105 |
| O=C(O)c1cncc(C#Cc2ccccc2)c1 | 245 to 247 |
| O=[N+]([O-])c1ccc2ccc3cccc4ccc1c2c34 | 155 |
| O=C(C=NNc1ccccc1)c1ccc(C(=O)C=NNc2ccccc2)c([N+](=O)[O-])c1 | 100 |
| O=[N+]([O-])c1cc([N+](=O)[O-])c(C(Cl)=Cc2ccccc2)cc1/C=C\c1ccccc1 | 191 |
| CC(Cc1ccccc1)=NNc1ccccc1 | 85 |
| Cc1nc(NC(=N)N)sc1Br | 203 to 205 |
| Cc1ccc([N+](=O)[O-])cc1N=C=S | 60 to 62 |
| CCC(C)C1(CC)C(=O)NC(=S)NC1=O (configuration not stated) | 169 |
